Assays:
S1P3 receptor = S1P3 receptor (Homo sapiens, UniProt Q99500); settings: GTP[γ35S] binding assay; report PLoS One, 2014; cited from earlier work
[1] = test system: lymphocytes in the peripheral blood; assay: Lymphocyte count in peripheral blood, C57BL/6J strain mice; type: in vivo; settings: C57BL/6J mice, 24 hours from final administration
Experimental: Seven-week-old mice (Japan SLC, Inc., C57BL/6J strain) were repeatedly orally administered Compound 1 suspended in a vehicle (0.5% MC solution) at a dose of 0.003 mg/kg, 0.01 mg/kg, 0.03 mg/kg, 0.1 mg/kg, 0.3 mg/kg, or 1 mg/kg (in terms of free form) once daily for 14 days in the same manner as in Example 1. A control was administered only the vehicle (vehicle group). Experiments were performed using 5 mice in each group. At 24 hours from the final administration, blood was collected from the abdominal vena cava under isoflurane anesthesia using a heparin-treated syringe, and was mixed with ethylenediaminetetraacetic acid dipotassium salt (EDTA.2K) (1 mg). The lymphocyte count in the collected blood was measured using XT-2000iv (Sysmex Corporation).

[2] = test system: lymphocytes in the peripheral blood; assay: Lymphocyte count in peripheral blood, ddy strain mice; type: in vivo; settings: 0.03 mg/kg orally twice at an interval of 12 hours, 24 hours from second administration
Experimental: Next, 7-week-old mice (Japan SLC, Inc., ddy strain) were orally administered Compound 1 suspended in a vehicle (0.5% MC solution) at a dose of 0.03 mg/kg or 0.3 mg/kg (in terms of free form) twice at an interval of 12 hours in the same manner as in Example 2. A control was administered only the vehicle (vehicle group). Experiments were performed using 6 mice in each group. After 24 hours from the second administration, blood was collected from the abdominal vena cava under isoflurane anesthesia using a heparin-treated syringe, and was mixed with EDTA.2K (1 mg). The lymphocyte count in the collected blood was measured using XT-2000iv (Sysmex Corporation).

[3] = test system: laser-induced choroidal neovascularization (CNV) model; assay: Laser-induced CNV model: fluorescein angiography (FA) grade; type: in vivo, mice; settings: 0.03 mg/kg or 0.3 mg/kg orally once daily, each group; Day 14 after laser irradiation
Experimental: A Mydrin-P ophthalmic solution (Santen Pharmaceutical Co., Ltd., Mydrin is a trademark) was dropped into the right eye of 8-week-old mice (Japan SLC, Inc., C56BL/6J strain) to cause mydriasis. A solution obtained by diluting a 7:1 mixed anesthetic solution of ketamine and xylazine 10-fold with physiological saline was administered at 10 mL/kg into the femoral muscle. After that, a 0.1% Hyalein (trademark) ophthalmic solution (Santen Pharmaceutical Co., Ltd.) was dropped into the eye so as to prevent the eyeball from drying. […]
Sampling was performed on the 14th day after the laser irradiation. The mice were anesthetized with 10 mL/kg of a solution obtained by diluting a 7:1 mixed anesthetic solution of ketamine and xylazine 10-fold with physiological saline, and then 0.1 mL of a 10-fold dilution of fluorescein (Alcon Japan Ltd.) was administered into the tail vein of the mice, followed by fluorescence fundus photography using Micron 4 (Phoenix Research Laboratories, Inc. Pleasanton, Calif., USA).
In FIG. 1 (a), Day 0 indicates images taken on the day of the laser irradiation, and Day 14 indicates images taken on the 14th day. In addition, for the image of each group on Day 14, an FA grade was determined for each laser irradiation site in accordance with grade criteria shown in Table 1 to evaluate the leakage of a fluorescent dye from a neovascularization site. […]

S1P2 receptor = S1P2 receptor (Homo sapiens, UniProt O95136); settings: GTP[γ35S] binding assay; report PLoS One, 2014; cited from earlier work
[4] = test system: laser-induced choroidal neovascularization (CNV) model; assay: Laser-induced CNV model: area of CNV in choroidal flat mount; type: in vivo, mice; settings: Day 14
Experimental: After fluorescence fundus photography had been performed as described above in the section (1), 0.5 mL of fluorescein isothiocyanate dextran (FITC-dextran; 20 mg/mL, Sigma-Aldrich) was administered into the tail vein of the mice. The mice were euthanized by cervical dislocation, and the eyeball was extirpated. The extirpated eyeball was fixed in a 4% paraformaldehyde phosphate buffer for 12 hours. After that, the cornea and lens were excised under a microscope, and the remaining vitreous artery was removed with forceps. Further, the retina was removed, and the choroid was notched 8 points and embedded with Fluoromount (Diagnostic BioSystems) in a flat state to generate a choroidal flat mount specimen. The choroidal flat mount was photographed using a confocal laser scanning microscope (FLUOVIEW FV10i; Olympus, Tokyo, Japan). Next, on the basis of the photographed image, the CNV was encircled using analysis software OLYMPUS FLUOVIEW FV10i (Olympus), and the area thereof was determined as the area of CNV (μm^2). All analyses were performed in a blinded manner. After fluorescence fundus photography had been performed as described above in the section (1), a choroidal flat mount specimen was generated by the same method as in Example 1. The choroidal flat mount was photographed using an all-in-one fluorescence microscope (BZ-X710; Keyence, Osaka, Japan). Next, on the basis of the photographed image, the CNV was encircled using image editing software Image J, and the area thereof was determined as the area of CNV (μm^2). All analyses were performed in a blinded manner.

S1P3 receptor, sequence (Q99500 whole entry): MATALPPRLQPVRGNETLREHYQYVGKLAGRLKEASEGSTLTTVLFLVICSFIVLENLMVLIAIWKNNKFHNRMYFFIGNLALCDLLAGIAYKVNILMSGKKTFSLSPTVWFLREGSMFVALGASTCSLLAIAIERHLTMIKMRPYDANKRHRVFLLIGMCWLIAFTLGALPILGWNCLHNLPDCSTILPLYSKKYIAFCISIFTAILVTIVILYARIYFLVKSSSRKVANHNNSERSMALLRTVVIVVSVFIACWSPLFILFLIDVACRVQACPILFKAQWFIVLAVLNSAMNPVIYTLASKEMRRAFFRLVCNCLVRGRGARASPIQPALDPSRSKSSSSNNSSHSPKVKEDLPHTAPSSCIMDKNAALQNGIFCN
S1P2 receptor, sequence (O95136 whole entry): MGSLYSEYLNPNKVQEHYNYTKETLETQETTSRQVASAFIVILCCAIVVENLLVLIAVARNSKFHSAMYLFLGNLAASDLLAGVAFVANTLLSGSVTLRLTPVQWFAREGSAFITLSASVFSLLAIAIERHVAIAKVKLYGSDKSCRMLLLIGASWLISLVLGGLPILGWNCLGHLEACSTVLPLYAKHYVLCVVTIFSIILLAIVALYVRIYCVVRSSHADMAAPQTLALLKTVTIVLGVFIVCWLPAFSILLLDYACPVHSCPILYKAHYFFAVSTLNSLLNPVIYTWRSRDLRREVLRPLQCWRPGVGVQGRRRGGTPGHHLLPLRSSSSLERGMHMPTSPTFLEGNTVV

Q: What does the source list for `C[C@H](Oc1ccc(-c2nc(-c3ccc4[nH]cnc4c3)no2)cc1C(F)(F)F)C(F)(F)F.Cl` [Compound 1, 5-{5-[3-(trifluoromethyl)-4-{[(2S)-1,1,1-trifluoropropan-2-yl]oxy}phenyl]-1,2,4-oxadiazol-3-yl}-1H-benzimidazole monohydrochloride]?
A: EC50 for S1P3 receptor agonist activity as compared to that for the S1P1 receptor (S1P3 receptor): ≥ 100 fold; lymphocytes in the peripheral blood ([1]; 0.03 mg/kg orally once daily for 14 days): not found to have a significant action; lymphocytes in the peripheral blood ([1]; 0.1 mg/kg or more orally once daily for 14 days): significantly decreased lymphocytes in the peripheral blood; lymphocytes in the peripheral blood [2]: did not cause a significant decrease in lymphocytes in the peripheral blood; FA grade as compared to the vehicle group [3]: significantly lowered; EC50 for S1P2 receptor agonist activity as compared to that for the S1P1 receptor (S1P2 receptor): ≥ 100 fold; area of CNV ([4]; 0.03 mg/kg orally once daily): a decrease in area of CNV; area of CNV ([4]; 0.3 mg/kg orally once daily): a significant decrease was found; reduction ratio of the area of CNV ([4]; 0.3 mg/kg orally once daily): 34%

— patent US20210113529A1, “MEDICINE FOR PREVENTING OR TREATING OPHTHALMIC DISEASE ASSOCIATED WITH ENHANCED INTRAOCULAR NEOVASCULARIZATION AND/OR INTRAOCULAR VASCULAR PERMEABILITY” (KYOTO UNIVERSITY, priority 2018, published 2021)
